{"source": "patent US11304956B2", "about": "“Use of 7-bromo-5-(O-chlorophenyl)-3-propoxy-1,2-dihydro-3H-1,4-benzodiazepin-2-one for inhibition of neuropathic pain and seizures of different etiology” (priority 2016, dated 2022)", "system": "gastric mucosa", "test": "Ulcerogenic effect, subchronic experiment (4 days intragastric)", "assay_type": "in vivo, rats", "details": "50 mg/kg intragastrically for 4 days", "method": "The disadvantage of most analgesics is the fact that they have ulcerogenic effect that interferes with their long-term use. We have studied this side effect of Compound 1 in acute and subchronic experiments. In the first scheme, the compound in the form of an aqueous suspension (Tween-80) was administered in single dose intragastrically to rats, which had previously been deprived of food for 16 hours with free access to water. After 3 hours, the animals were euthanized with a cervical dislocation, then, after dissection of the abdominal cavity, stomachs were ejected and washed in isotonic sodium chloride solution to take out the contents. Damage of stomach was determined visually. In the second scheme, the compound was administered intragastrically for 4 days, after that the extent of the damaging effect on the stomach was determined, as in the previous experiment.\nEvaluation of ulcerogenic action was carried out on a 4-score scale:\n0 score—no damage; 0.5 score—hyperemia (blood vessels overflow)\n1 score—single minor lesions (1-3 point hemorrhages or small ulcers)\n2 score—multiple (more than 3) lesions (erosions, pinpoint hemorrhages) or 1 large ulcer\n3 score—significant and massive damages (erosions, hemorrhages) of the gastric mucosa with significant size (diameter up to 4 mm)\n4 score—gross injuries (massive hemorrhages, erosions, perforations) that cover the entire surface of the gastric mucosa.\nThe average multiplicity index of damage to the gastric mucosa (the number of ulcers per animal) and the severity of the damage (in scores) were determined.\nCompound 1 was administered over a wide dose range—in acute studies—50, 250, 500 and 1000 mg/kg. For the subchronic experiment, the compound was used at a dose of 50 mg/kg.\nWe also determined the indexes of gastrotoxicity of gastric mucosa under conditions of repeated intragastral administration (for 4 days at a dose of 50 mg/kg). […] The average severity in this group was of 1.4±0.27 score, and the multiplicity was of 1.9±0.64 ulcers per animal. This also indicates the absence of a gastrotoxic effect of this compound on the stomach."}
{"smiles": "CCCOC1N=C(c2ccccc2Cl)c2cc(Br)ccc2NC1=O", "note": "(stereo not shown) [Compound 1, 7-bromo-5-(o-chlorophenyl)-3-propoxy-1,2-dihydro-3H-1,4-benzodiazepin-2-one]", "values": [{"measurement": "Macroscopic examination of the gastric mucosa", "value": "insignificant decrease in the folding of the gastric mucosa and a rather distinct decrease in the amount of mucus"}, {"measurement": "Multiplicity", "setting": "n=10", "value": "1.9±0.64", "unit": "ulcers per animal"}, {"measurement": "Number of animals with lesions of the gastric mucosa, score 1", "setting": "n=10", "value": 6}, {"measurement": "Number of animals with lesions of the gastric mucosa, score 2", "setting": "n=10", "value": 5}, {"measurement": "Number of animals with lesions of the gastric mucosa, score 3", "setting": "n=10", "value": 0}, {"measurement": "Number of animals with lesions of the gastric mucosa, score 4", "setting": "n=10", "value": 0}, {"measurement": "Average severity", "setting": "n=10, 4-score scale", "value": "1.4±0.27", "unit": "score"}]}
